Test results as given in patent publication US12384754B2, “Cocrystals of (1R,3S)-3-(5-cyano-4-phenyl-1,3-thiazol-2-ylcarbamoyl)cyclopentane carboxylic acid” (PALOBIOFARMA, S.L., priority 2020, dated 2025).

Assays:
[1] = Hygroscopicity study by DVS (Dynamic Vapour Sorption); format: physicochemical; conditions: for moisture content, 15% RH / moisture content, 35% RH / moisture content, 55% RH / moisture content, 75% RH: DVS, 25° C.; for variation in the moisture content: at 75% RH
Description: Hygroscopicity study. The hygroscopicity of cocrystals was determined by DVS (Dynamic Vapour Sorption) with a Q5000 TA instrument. This is a gravimetric technique that measures the amount of water absorbed or desorbed by a sample at different relative humidities (RH). At each RH level, the sample mass must be allowed to reach gravimetric equilibrium (or surpass the time limit) before progressing to the next humidity level. Sorption and desorption isotherms were performed at 25° C. over a range of 0-95% RH. The sample was not previously dried, but it was exposed to 0% RH until reaching a stable weight before starting the DVS cycle. This equilibration step allows the elimination of the possible adsorbed humidity from the atmosphere. The relative humidity (RH) was controlled by a mixture of wet and dry nitrogen stream. The RH was held constant until the equilibrium had been obtained (constant weight) or until the maximum time has been reached, before changing the RH to the next level.

[2] = Crystalline stability under accelerated storage conditions (40° C., 75±5 RH %), XRPD; format: physicochemical; conditions: for Stability, 1 week / Stability, 2 weeks / Stability, 3 weeks / Stability, 4 weeks: 40° C., 75±5 RH %, XRPD; for Stability under forced conditions (one week) and in 4-weeks stability assay: crystallinity, colour, aspect
Description: Crystalline stability study was performed under accelerated stability conditions (40° C., 75±5 RH %) for one week. A sample of each form stored on a XRPD silicon holder was exposed in a climatic chamber. It is worth noting that these conditions are very drastic because the high surface exposed to the storage conditions might favour possible crystalline conversion. The samples were periodically analysed by XRPD to observe possible transformation.
Additional crystalline stability study was performed under accelerated stability conditions (40° C., 75±5 RH %). Cocrystal samples were stored in an open vial and exposed in a climate chamber maintaining the conditions set with accuracy (40° C.-75% RH ±5 RH). These samples were analysed weekly for 1 month.
The stability of the cocrystalline forms of (1R,3S)-3-(5-cyano-4-phenyl-1,3-thiazol ylcarbamoyl) cyclopentane carboxylic acid were studied under accelerated storage conditions (40° C., 75±5 RH %) for one to four week. See results in Table 5.
After time exposure, cocrystals remained stable according to XRPD analysis. Amorphization or appearance of crystalline forms was not detected in the limit of detection of the analysis conditions.

[3] = Comparative bioavailability assay in healthy volunteers; format: in vivo; conditions: for AUC0-t, MEAN ± SD / AUC0-t, geometric mean / AUC0-∞, MEAN ± SD / AUC0-∞, geometric mean / Cmax, MEAN ± SD / Cmax, geometric mean / tmax, median and range: single oral dose, Example 1 5 mg, Example 2 7.3 mg
Description: Healthy volunteers in this study will be males 18 years of age or older in order to assess the comparative bioavailability of compound of Example 2 versus compound of Example 1, under fasting conditions and to investigate the effect of a high fat, high calorie meal. Compounds will be administered orally in single dose of Example 1 (5 mg) and Example 2 (7.3 mg). The study will have a randomized, open-label, four-fold crossover design.
In order to determine comparative bioavailability AUC0-t (AUC0-t: Area under the plasma concentration-time curve from time 0 h to the last measurable concentration) and Cmax (Cmax: Observed maximum plasma concentration (peak exposure)) will be determined after each administration.
16 volunteers were included in the study. […] Therefore, all the data were included in all pharmacokinetic measurements and calculations, without any adjustment.

[4] = Plasma pharmacokinetics / oral bioavailability after single IV and PO administration; format: in vivo; conditions: male SD rats; for F % (bioavailability): po 5 mg/Kg vs iv 1 mg/Kg
Description: The objective of this study was to investigate the plasma pharmacokinetics of differentes cocrystals obtained from (1R,3S)-3-(5-cyano-4-phenyl-1, 3-thiazol ylcarbamoyl) cyclopentane carboxylic acid, following a single intravenous (IV) and oral (PO) administration in male SD rats.
Animals were divided into two groups: Group 1 (IV: 1 mg/kg) and Group 2 (PO: 5 mg/kg). Animals in Group 1 and 2 were administered a solution of the different cocrystals of (1R,3S)-3-(5-cyano-4-phenyl-1,3-thiazol-2-ylcarbamoyl) cyclopentane carboxylic acid in normal saline. The blood samples were collected from set of three rats at each time point in labeled micro centrifuge tube containing K2EDTA solution as anticoagulant at Pre-dose, 0.083, 0.25, 0.5, 1, 2, 4, 8 and 24 hr (IV) and Pre-dose, 0.25, 0.5, 1, 2, 4, 6, 8 and 24 hr (PO). Plasma samples were separated by centrifugation of whole blood and stored below −70±10° C. until bioanalysis. All samples were processed for analysis by protein precipitation using acetonitrile and analyzed with fit-for-purpose LC-MS/MS method (LLOQ=1.00 ng/ml). Pharmacokinetic parameters were calculated using the non-compartmental analysis tool of Phoenix WinNonlin® (Version 6.3).

[5] = pKa / ΔpKa of free acid and cocrystal forming compounds; format: physicochemical
Text: Cocrystals are distinguished from salts because unlike salts, the components that co-exist in the cocrystal lattice with a defined stoichiometry interact nonionically. […] If this criterion is met, the API-coformer entity should be classified as a cocrystal. (Regulatory Classification of Pharmaceutical Co-Crystals Guidance for Industry, February 2018, http://www.fda.gov/Drugs/GuidanceComplianceRegulatotyInformation/Guidances/default.htm).

[6] = Fed (high fat, high calorie meal)

| SMILES | moisture content, 15% RH [1] | moisture content, 35% RH [1] | moisture content, 55% RH [1] | moisture content, 75% RH [1] | variation in the moisture content [1] [%] | Stability, 1 week [2] | Stability, 2 weeks [2] | Stability, 3 weeks [2] | Stability, 4 weeks [2] | Stability under forced conditions (one week) and in 4-weeks stability assay [2] | AUClast ([4]; iv, 1 mg/Kg) [ng·h/mL] | Clearance ([4]; iv, 1 mg/Kg) [mL/min/kg] | F % (bioavailability) [4] [%] | AUClast ([4]; po, 5 mg/Kg) [ng·h/mL] | Cmax ([4]; po, 5 mg/Kg) [ng/mL] | pKa conjugated base ([5]; cocrystal forming compound) | also measured |
| --- | --- | --- | --- | --- | --- | --- | --- | --- | --- | --- | --- | --- | --- | --- | --- | --- | --- |
| N#Cc1sc(NC(=O)[C@H]2CC[C@@H](C(=O)O)C2)nc1-c1ccccc1.O=C(O)c1cc(O)ccc1O [Example 2, cocrystal of (1R,3S)-3-(5-cyano-4-phenyl-1,3-thiazol-2-ylcarbamoyl) cyclopentane carboxylic acid and gentisic acid] | 0.0079 | 0.0175 | 0.0398 | 0.1035 | 0.10 | stable | stable | stable | stable | no crystallinity changes, colour or any other change in the aspect were observed | 3304.55 | 5.03 | 100 | 16502.48 | 8642.28 | – | Hygroscopicity compared with the free acid ([1]; usual storage conditions of drugs (<75% RH), up to 75% RH, listed as cocrystal with gentisic acid): less hygroscopic than free acid; Hygroscopicity compared with the free acid ([1]; usual storage conditions of drugs (<75% RH), up to 75% RH, listed as gentisic acid cocrystal): less hygroscopicity than the free acid; AUC0-t, MEAN ± SD ([3]; Fasting): 1138.5 ± 451.1 ng/mLxh; AUC0-t, geometric mean ([3]; Fasting): (1071.4) ng/mLxh; AUC0-∞, MEAN ± SD ([3]; Fasting): 1216.5 ± 483.3 ng/mLxh; AUC0-∞, geometric mean ([3]; Fasting): (1141.7) ng/mLxh; Cmax, MEAN ± SD ([3]; Fasting): 173.7 ± 60.7 ng/mL; Cmax, geometric mean ([3]; Fasting): (165.8) ng/mL; tmax, median and range ([3]; Fasting): 2.25 (1.5-5.0) h; AUC0-t, MEAN ± SD [3, 6]: 599.1 ± 132.1 ng/mLxh; AUC0-t, geometric mean [3, 6]: (585.9) ng/mLxh; AUC0-∞, MEAN ± SD [3, 6]: 675.0 ± 158.8 ng/mLxh; AUC0-∞, geometric mean [3, 6]: (659.1) ng/mLxh; Cmax, MEAN ± SD [3, 6]: 73.6 ± 25.1 ng/mL; Cmax, geometric mean [3, 6]: (69.8) ng/mL; tmax, median and range [3, 6]: 7.0 (5.0-7.0) h; Cmax compared with Example 1 ([3]; administered after a high fat meal): slightly higher |
| N#Cc1sc(NC(=O)[C@H]2CC[C@@H](C(=O)O)C2)nc1-c1ccccc1.NC(N)=O [Example 3, cocrystal of (1R,3S)-3-(5-cyano-4-phenyl-1,3-thiazol-2-ylcarbamoyl) cyclopentane carboxylic acid and urea] | 0.015 | 0.0339 | 0.0545 | 0.0895 | 0.08 | stable | stable | stable | stable | no crystallinity changes, colour or any other change in the aspect were observed | 2714.55 | 6.12 | 100 | 19238.03 | 10227.47 | – | Hygroscopicity compared with the free acid ([1]; usual storage conditions of drugs (<75% RH), up to 75% RH, listed as cocrystal with urea): less hygroscopic than free acid; Hygroscopicity compared with the free acid ([1]; usual storage conditions of drugs (<75% RH), up to 75% RH, listed as urea cocrystal): less hygroscopicity than the free acid |
| N#Cc1sc(NC(=O)[C@H]2CC[C@@H](C(=O)O)C2)nc1-c1ccccc1.NC(=O)c1cccnc1 [Example 4, cocrystal of (1R,3S)-3-(5-cyano-4-phenyl-1,3-thiazol-2-ylcarbamoyl) cyclopentane carboxylic acid and nicotinamide] | 0.029 | 0.066 | 0.165 | 0.4584 | – | stable | stable | stable | stable | no crystallinity changes, colour or any other change in the aspect were observed | – | – | – | – | – | – | Hygroscopicity compared with the free acid ([1]; range between 5-70% RH): less hygroscopicity than the free acid |
| O=C(O)c1cc(O)ccc1O [Gentisic acid, 2,5-dihydroxybenzoic acid] | – | – | – | – | – | – | – | – | – | – | – | – | – | – | – | Not basic | – |
| NC(=O)c1cccnc1 [Nicotinamide, 3-pyridinecarboxamide] | – | – | – | – | – | – | – | – | – | – | – | – | – | – | – | – | ΔpKa ([5]; between the free acid (pKa 4.3) and the cocrystal forming compound): 0.9; pKa ([5]; cocrystal forming compound, read-out: pKa conjugated base): 3.4 |
| NC(N)=O [Urea, urea] | – | – | – | – | – | – | – | – | – | – | – | – | – | – | – | Not basic | – |
